From patent US5624911A, “Ether derivatives of pseudopterosin” (The Regents of the University of California, priority 1995, dated 1997)
Like-named read-outs stand apart in the source and are kept apart here.

B1: human plasminogen: Plasminogen (from human plasma) was obtained from Athens Research and Technology, Athens, Ga. (protein, UniProt P00747 20-810, looked up)
Plasminogen: EPLDDYVNTQGASLFSVTKKQLGAGSIEECAAKCEEDEEFTCRAFQYHSKEQQCVIMAENRKSSIIIRMRDVVLFEKKVYLSECKTGNGKNYRGTMSKTKNGITCQKWSSTSPHRPRFSPATHPSEGLEENYCRNPDNDPQGPWCYTTDPEKRYDYCDILECEEECMHCSGENYDGKISKTMSGLECQAWDSQSPHAHGYIPSKFPNKNLKKNYCRNPDRELRPWCFTTDPNKRWELCDIPRCTTPPPSSGPTYQCLKGTGENYRGNVAVTVSGHTCQHWSAQTPHTHNRTPENFPCKNLDENYCRNPDGKRAPWCHTTNSQVRWEYCKIPSCDSSPVSTEQLAPTAPPELTPVVQDCYHGDGQSYRGTSSTTTTGKKCQSWSSMTPHRHQKTPENYPNAGLTMNYCRNPDADKGPWCFTTDPSVRWEYCNLKKCSGTEASVVAPPPVVLLPDVETPSEEDCMFGNGKGYRGKRATTVTGTPCQDWAAQEPHRHSIFTPETNPRAGLEKNYCRNPDGDVGGPWCYTTNPRKLYDYCDVPQCAAPSFDCGKPQVEPKKCPGRVVGGCVAHPHSWPWQVSLRTRFGMHFCGGTLISPEWVLTAAHCLEKSPRPSSYKVILGAHQEVNLEPHVQEIEVSRLFLEPTRKDIALLKLSSPAVITDKVIPACLPSPNYVVADRTECFITGWGETQGTFGAGLLKEAQLPVIENKVCNRYEFLNGRVQSTELCAGHLAGGTDSCQGDSGGPLVCFEKDKYILQGVTSWGLGCARPNKPGVYVRVSRFVTWIEGVMRNN
B2: IL-1-α: Recombinant Human Interleukin-1-α was obtained from R&D Systems, Minneapolis, Minn. (protein, UniProt P01583 113-271, looked up)
Interleukin-1 alpha: SAPFSFLSNVKYNFMRIIKYEFILNDALNQSIIRANDQYLTAAALHNLDEAVKFDMGAYKSSKDDAKITVILRISKTQLYVTAQDEDQPVLLKEMPEIPKTITGSETNLLFFWETHGTKNYFTSVAHPNLFIATKQDYWVCLAGGPPSITDFQILENQA

Key:
[1] = tested on: bovine articular cartilage explants; assay: Inhibition of IL-1-induced Cartilage Degradation in the Presence of Human Plasminogen (35S glycosaminoglycan release); assay type: cell-based, bovine (calf); details: for % Inhibition @ 30 μM (Explant) / IC50: plasminogen 0.4 μM plus IL-1 0.5 ng/mL, 96 hours; for IC50: explant
Procedure: (§1) The ether derivatives were also tested to determine their usefulness in inhibiting degradation of cartilage. Bovine articular cartilage explants labeled with ^35 Sulfate were used to monitor chondrocyte-mediated cartilage degradation in the presence of plasminogen, at concentrations similar to that measured in synovial fluid (0.4 μM), cartilage is extremely sensitive to the effects of IL-1-stimulated degradation. Stimulated chondrocytes produce and activate plasminogen activator (uPA), causing conversion of plasminogen to plasmin. Plasmin is not only an effective activator of the MMP's, but also an effective proteoglycanase. Inhibitors were added to the assay concomitant with the cytokine IL-1, and their effect was monitored by measuring differences in ^35 S glycosaminoglycan release, as compared to appropriate controls.
(§2) Plasminogen (from human plasma) was obtained from Athens Research and Technology, Athens, Ga. Recombinant Human Interleukin-1-α was obtained from R&D Systems, Minneapolis, Minn. DMEM was obtained from Gibco, Grand Island, New York. ^35 S-Sodium Sulfate was obtained from Amersham, Arlington Heights, Ill.
(§3) Bovine (calf) radiocarpal joints were acquired from a local abbatoir immediately after sacrifice and transported on ice. The joints were then washed thoroughly and placed in ice containing approximately 25% Povidine (10% Povidone-lodine topical solution). The joints were then dissected in a sterile hood using good sterile technique. Media (DMEM containing 4.5 g/L D-Glucose and L-Glutamine, without sodium pyruvate) was supplemented with HEPES buffer and sodium bicarbonate, and the pH adjusted to 7.4. The media was further supplemented with penicillin and streptomycin (100 units/mL and 100 μg/ml, respectively) and 50 μg/mL L-ascorbic acid. The cartilage surfaces were exposed, and the synovial fluid was wiped away with sterile gauze. A sterile cork-borer with a diameter of 3.5 millimeters was used to remove uniform plugs of cartilage. Proper orientation was maintained by distinguishing the underlying bony layer in the plugs (only the articulating surface of the cartilage plugs were used in the experiments). The plugs were placed in a sterile flask, washed four times with 50 mL of fresh media, and then placed in an incubator (37 degrees centigrade, with 5% CO2 /95% air, with adequate humidity) and allowed to equilibrate for 1 hour. A 1 mm thick slice of the articulating surface was sliced off of each individual cartilage plug, using a specially designed template to obtain uniform thickness. The cartilage disks were then labeled en mass with ^35 Sulfate at a concentration of approximately 10 μCi/mL for approximately 72-96 hours, with hand-stirring every few hours. Subsequent to labeling, explants were equilibrated with fresh media each 48 hours. The total time for labeling/equilibration was approximately one week from acquisition/dissection of tissue.
(§4) For testing of ether derivatives, individual explants were transferred to 96-well plates containing 250μL of media with or without Plasminogen plus IL-1, and with or without ether derivative. […] All other groups in any assay would contain ether derivative along with concomitant plasminogen plus IL-1. Five samples were routinely used, with concentrations of plasminogen plus IL-1 of 0.4 μM and 0.5 ng/mL, respectively. The assay is allowed to incubate for 96 hours, prior to counting a 50 μL sample of supernatant from each well. A 50 μL sample of a papain digest of each explant is also counted for each respective well. From the counts released into the supernatant over four days, and the total counts present, the data can be expressed as % glycosaminoglycan (GAG) over the four days). The media alone % GAG release values are subtracted from all other values where plasminogen plus IL-1 were present (media alone represents the background for the system). […]

[2] = tested on: edema induced by phorbol 12-myristate 13-acetate (PMA) in ears of mice; assay: Mouse Ear Edema Assay (PMA-induced edema, topical); assay type: in vivo; details: for % Inhibition (of edema relative to PMA control) / Mean Edema (mgs ± SEM): topical, 50 μg/ear with PMA 2 μg/ear, 3 hours 20 minutes; for Mean Edema (mgs ± SEM): PMA controls 17.7 ± 0.6
Procedure: The pseudopterosin ethers were topically applied in acetone to the inside pinnae of the ears of mice in a solution containing the edema-causing irritant, phorbol 12-myristate 13-acetate (PMA). PMA alone (2 μg/ear) or in combination with 50 μg/ear of test compound was applied to the left ears (5 mice per treatment group) and acetone is applied to all right ears. After 3 hours 20 minutes incubation, the mice were sacrificed, the ears removed, and bores taken and weighed. Edema was measured by subtracting the weight of the right ear (acetone control) from the weight of the left ear (treated). Results were recorded as percent decrease (inhibition) or percent increase (potentiation) in edema relative to the PMA control group edema.

[3] = tested on: bovine articular cartilage explants; assay: Interleukin-1 mediated cartilage degradation, with or without plasminogen (35S-GAG release); assay type: cell-based, bovine (calf); details: for degradation by plasminogen alone (in words): 0.4 μM human plasminogen alone
Procedure: as §1, §2, §3, §4

| Molecule | % Inhibition @ 30 μM (Explant) [1] | IC50 ([1]; Bos taurus, read-out: IC50) | % Inhibition (of edema relative to PMA control) [2] | Mean Edema (mgs ± SEM) [2] | other results |
| --- | --- | --- | --- | --- | --- |
| CC(C)=C[C@H]1C[C@H](C)[C@H]2CC[C@H](C)c3c(O[C@@H]4OC[C@@H](O)[C@H](O)[C@H]4O)c(OCCCCO)c(C)c1c32 [WF 336, Pseudopterosin A Butanol ether] | 73% | 19 µM | 69.9% | 5.3 ± 0.9 mgs | – |
| bis pseudopterosin A pentanyl diether [WF 338] | 0% | – | 6.7% | 16.5 ± 1.2 mgs | inhibition of explant degradation (in words) ([1]; as can be seen from TABLE 2): inhibited explant degradation, except for WF 338; IC50 ([1]; read-out: IC50): > 30 µM; anti-inflammatory activity (in words) ([2]; mouse ear edema, comparison compound): little if any anti-inflammatory activity |
| CCCCCCCCCCCCCCCCCCOc1c(C)c2c3c(c1O[C@@H]1OC[C@@H](O)[C@H](O)[C@H]1O)[C@@H](C)CC[C@@H]3[C@@H](C)C[C@@H]2C=C(C)C [WF 335, Pseudopterosin A Octadecanyl ether] | 27% | > 30 µM | 54.4% | 8.0 ± 1.2 mgs | – |
| CC(C)=C[C@H]1C[C@H](C)[C@H]2CC[C@H](C)c3c(O[C@@H]4OC[C@@H](O)[C@H](O)[C@H]4O)c(OCC(N)=O)c(C)c1c32 [WF 337, Pseudopterosin A Acetamide ether] | 74% | 15 µM | 52.6% | 8.4 ± 1.4 mgs | – |
| CCCCCOc1c(C)c2c3c(c1O[C@@H]1OC[C@@H](O)[C@H](O)[C@H]1O)[C@@H](C)CC[C@@H]3[C@@H](C)C[C@@H]2C=C(C)C [WF 333, Pseudopterosin A Pentyl ether] | 58% | > 40 µM | 62.2% | 6.7 ± 1.0 mgs | – |
| CCCCCCCCCCOc1c(C)c2c3c(c1O[C@@H]1OC[C@@H](O)[C@H](O)[C@H]1O)[C@@H](C)CC[C@@H]3[C@@H](C)C[C@@H]2C=C(C)C [WF 334, Pseudopterosin A Decanyl ether] | Inconclusive | – | 60.7% | 7.0 ± 0.9 mgs | IC50 [1]: Inconclusive |
| CC(C)=C[C@H]1C[C@H](C)[C@H]2CC[C@H](C)c3c(O[C@@H]4OC[C@@H](O)[C@H](O)[C@H]4O)c(OCc4ccccc4)c(C)c1c32 [WF 332, Pseudopterosin A Benzyl ether] | 57% | 26 µM | 68.3% | 5.6 ± 1.0 mgs | – |
| B1 | – | – | – | – | degradation by plasminogen alone (in words) [3]: does not induce any degradation above control levels; degradation by plasminogen alone (in words) ([3]; listed as plasminogen): same results as media alone |
| B2 | – | – | – | – | 35S-GAG release ([3]; IL-1-α 0.4 ng/mL plus plasminogen 0.4 μM, four day assay): approximately 50%; GAG release ([3]; IL-1-α 1 ng/mL plus 0.5 μM plasminogen): greater than 90%; increase in degradation over control ([3]; IL-1-α 2.5 ng/mL, without plasminogen): two-fold increase; release of 35S-labeled GAG ([3]; IL-1-α 10 ng/mL, without plasminogen): ~35%; dose dependence of degradation (in words) ([3]; IL-1-α, without plasminogen): induces degradation in bovine articular cartilage explants in a dose-dependent manner |
